Laboratory results from patent publication US9551722B2, “Amyloid binding agents” (The Regents of the University of California, priority 2009, dated 2017).
Where “and” joins values, the source holds several entries; their conditions need not be identical. Equal values may be shown once.

Target: T1, interaction of the aggregated Aβ peptide with a monoclonal anti-Aβ IgG (Homo sapiens, UniProt P05067)
T1 construct: Aggregated Aβ peptides were generated from synthetic Aβ(1-42) peptides
Experiment: Semi-quantitative ELISA: inhibition of IgG-Aβ fibril interactions
Assay type: binding
Settings: anti-Aβ IgG clone 6E10; for IC50: 50% inhibition of IgG-Aβ interactions; for Maximum % inhibition (ELISA): maximal percentage of IgG inhibited from binding to the fibrils
Description: The association of the synthesized compounds with aggregated Aβ peptides was tested using a semi-quantitative ELISA based assay developed by Yang and co-workers. See P. Inbar, J. Yang, Bioorg. Med. Chem. Lett. 2006, 16:1076-1079; P. Inbar, C. Q. Li, S. A. Takayama, M. R. Bautista, J. Yang, ChemBioChem 2006, 7:1563-1566; P. Inbar, M. R. Bautista, S. A. Takayama, J. Yang, Anal. Chem. 2008, 80:3502-3506. The assay is based on screening for molecules that inhibit the interaction of the aggregated Aβ peptide with a monoclonal anti-Aβ IgG raised against residues 1-17 of Aβ. Table 4 provides the concentrations of the compounds corresponding to 50% inhibition (IC50) of the IgG-Aβ interactions as well as the maximal percentage of the IgG's inhibited from binding to the fibrils. […] The maximum inhibition, a measure of the extent of surface coating of the aggregated peptide by the compounds, was determined to be between 40-98% (Table 4). See P. Inbar, J. Yang, Bioorg. Med. Chem. Lett. 2006, 16:1076-1079; P. Inbar, C. Q. Li, S. A. Takayama, M. R. Bautista, J. Yang, ChemBioChem 2006, 7:1563-1566; P. Inbar, M. R. Bautista, S. A. Takayama, J. Yang, Anal. Chem. 2008, 80:3502-3506. […] Specifically, while the maximum inhibition is between 81-98% for the phenyl compounds, it decreases to 58% for the longer naphthalene compound 11 and to 40% for the more conjugated stilbene 19.
Aggregated Aβ peptides were generated from synthetic Aβ(1-42) peptides by dissolving 30 μg of peptide in 90 μL of nanopure water (pH 5-6) and incubating at 37° C. for ≧72 h without agitation. Each well of a 96-well plate (well volume 0.4 mL; clear, flat bottom polypropylene) was coated for 3 h at 25° C. with 50 μL of 1.3 μM solution of Aβ peptides in phosphate-buffered saline (PBS, 10 mM NaH2PO4/Na2HPO4, 138 mM NaCl, 2.7 mM KCl, pH 7.4). After removal of the excess sample, 50 μL solutions of compounds in PBS buffer (various concentrations were obtained by diluting a stock solution with PBS buffer) were incubated in the wells for 12 h. […] The excess solutions were then removed and all wells were blocked for 30 min by adding 300 μL of a 1% (w/v) solution of bovine serum albumin in PBS buffer (BSA/PBS). On occasion, an additional blocking step was performed prior to incubation with solutions of small molecules. The blocking solution was discarded and the wells were washed once with 300 μL of PBS buffer. Wells were incubated for 1 h with 50 μL of a 1.1 nM solution (in 1% BSA/PBS, dilution 1:6000) of anti-Aβ IgG (clone 6E10, monoclonal, mouse), followed by removal of the solution. The wells were washed twice with 300 μL of PBS buffer and incubated for 60 min with 50 μL of the secondary IgG (anti-mouse IgG H+L, polyclonal, rabbit) conjugated with alkaline phosphatase (6.8 nM in 1% BSA/PBS, dilution 1:1000). The solution was discarded, and the wells were washed twice with 300 μL PBS buffer. Bound secondary IgGs were detected by the addition of 50 μL of a p-nitrophenyl phosphate solution (2.7 mM, in 100 mM diethanol amine/0.5 mM magnesium chloride, pH 9.8). Absorbance intensities were determined at 405 nm using a UV-vis spectroscopic plate reader (Sprectramax 190, Molecular Devices, Sunnyvale, Calif.). Each run was performed five times and averaged. Error bars represent standard deviations. Graphs were plotted and fitted with the sigmoid curve fitting.

T1 sequence (P05067 672-713 limits assumed): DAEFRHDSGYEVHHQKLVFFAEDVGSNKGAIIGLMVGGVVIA

SMILES	IC50	Maximum % inhibition (ELISA)
COCCOCCOCCOC(=O)/C(C#N)=C/c1ccc2cc(N3CCCCC3)ccc2c1 [Cmpd 11, (E)-2-(2-(2-methoxyethoxyl)ethoxy)ethyl-2-cyano-3-(6-(piperidin-1-yl)naphthalen-2-yl)acrylate]	74.3 µM	58%
CN(C)c1ccc(/C=C(\C#N)C(=O)OCC(O)CO)cc1 (stereo not drawn) [Cmpd 14, (E)-2,3-dihydroxypropyl 2-cyano-3-(4-(dimethylamino)phenyl) acrylate]	82.1 µM	79%
COCCOCCOCCOC(=O)/C(C#N)=C/c1ccc(N(C)C)cc1OC [Cmpd 8b, (E)-2-(2-(2-methoxyethoxyl)ethoxy)ethyl 2-cyano-3-(4-(dimethylamino)-2-methoxyphenyl)acrylate]	1.17 µM and 1.2 µM	92%
CCN(CC)c1ccc(C=C(C#N)C(=O)OCCOCCOCCOC)cc1 (stereo in doubt) [Cmpd 8c, (Z)-2-(2-(2-methoxyethoxyl)ethoxy)ethyl 2-cyano-3-(4-(diethylamino)phenyl)acrylate]	11.4 µM	98%
COCCOCCOCCOC(=O)/C(C#N)=C/c1ccc(N(C)C)cc1 [Cmpd 8a, (E)-2-(2-(2-methoxyethoxyl)ethoxy)ethyl 2-cyano-3-(4-(dimethylamino)phenyl)acrylate]	129 µM	81%
CCCCN(CCCC)c1ccc(C=C(C#N)C(=O)OCCOCCOCCOC)cc1 (stereo in doubt) [Cmpd 8d, (Z)-2-(2-(2-methoxyethoxyl)ethoxy)ethyl-2-cyano-3-(4-(dibutylamino)phenyl)acrylate]	90.6 µM	91%
